Test results as given in patent US8822216B2, “DNA regulatory element for the expression of transgenes in neurons of a subject and uses thereof” (priority 1997, dated 2014).
Values belong to the molecule of their own block, whether it stands above or below them.

Key:
NMDA receptors = experiment: NMDA-mediated synaptic field potentials in hippocampal slices (DNQX, reduced Mg2+); type: cell-based, mouse
[1] = test system: Schaffer collateral-CA1 synapse; experiment: Chemically induced slow-onset potentiation (L-LTP) in hippocampal slices; type: cell-based, mouse
Procedure: FIG. 13C) and FIG. 13D): Drug was added at the time indicated in both panels at a concentration of 100 µM. Each point in the time courses represents the mean fEPSP slope±SEM normalized to the average of the predrug fEPSP slope. Insets show representative fEPSP traces just before drug addition and 3 hours after.
Is this reduction due to a direct effect on downstream components of L-LTP, or is it due to a failure to fully initiate L-LTP? To begin to explore this question we examined L-LTP evoked by pharmacological activation of the […], which bypasses tetanic stimulation in area CA1. In addition to being evoked through multiple high frequency tetani to the Schaffer collaterals, L-LTP in area CA1 can be induced chemically through either application of D1/D5 dopamine receptor agonists or direct activators of adenylyl cyclase and PKA. In wild-type slices, application of agonists of D1/D5 dopamine receptors or the PKA agonist Sp-cAMPS, result in a slow-onset potentiation of synaptic transmission that is sensitive to protein and RNA-synthesis inhibitors, and mutually occlusive with L-LTP elicited by multiple high frequency trains (Huang and Kandel, 1994; Huang et al., 1994; Bolshakov et al., 1997). If overexpression of calcineurin directly affects the machinery necessary to produce the late phase, pharmacologically-induced L-LTP, that bypasses E- and I-LTP, would be impaired in CN98-mutant mice, as is the case with the late phase deficit in tPA-knockout mice (Huang et al., 1996a).
We tested the ability of both the D1/D5 receptor agonist 6-Br-APB (100 μM) and the PKA activator Sp-cAMPs (100 μM) to elicit slow-onset potentiation at the Schaffer collateral-CA1 synapse in CN98 mice.
For extracellular recordings, ACSF-filled glass electrodes (1-3 MΩ) were positioned in the stratum radiatum of area CA1. A bipolar nichrome stimulating electrode was also placed in stratum radiatum for stimulation of Schaffer collateral afferents (0.05 ms duration). […]

calcineurin = experiment: Phosphatase assay in hippocampal extracts; type: biochemical, mouse
Procedure: Phosphatase assays were performed according to Hubbard and Klee (1991). Briefly, mice were injected with 5 ml/kg of pentobarbital and decapitated. Hippocampi were dissected out, homogenized in 2 mM EDTA (pH 8), 250 mM sucrose, 0.1% Bmercaptoethanol and centrifuged. Supernatants were diluted in 40 mM Tris-HCl (pH 8), 0.1M NaCl, 0.04 mg/ml bovine serum albumin, 1 mM DTT, […] (Buffer 1) and incubated at 30° C. for 1 min in Buffer 1 containing 1 mM of the peptide [γ^32P]-RII subunit of cyclic AMP-dependent protein kinase (PKA) and either 0.1 mM calmodulin (Sigma) and 0.66 mM Ca^2+ or 0.33 mM EGTA (pH 7.5). The peptide ^97[Ala]-RII (Peninsula Labs) was labeled with 0.3 roM [γ^32P]ATP (NEN) using 4 mg catalytic subunit of PKA (Fluka). The reaction was stopped with 5% TCA in 0.1 M KH2P04 and the enzyme activity was calculated as previously described (Klee et al., 1983) and is expressed in nmol Pi release/min/mg protein. The protein concentration was determined using the bicinchroninic acid protein assay kit (Sigma). All samples were performed in triplicate.
Phosphatase assays were performed as described in Winder et al., 1997. Briefly, mice were injected with 5 ml/kg of pentobarbital and decapitated. Hippocampi were dissected out, homogenized in 2 mM EDTA (pH 8), 250 mM sucrose, 0.1 k β-mercaptoethanol. Supernatants were incubated at 30° C. for 1 min in presence of the […] [Ala97]-RII peptide and either 0.1 mM calmodulin and 0.66 mM Ca^2+ or 0.33 mM EGTA. The reaction was stopped and the enzyme activity calculated previously as described (Klee et al., 1983; 1987). The activity was expressed in nmol Pi released/min/mg protein. The protein concentration was determined using the bicinchroninic acid protein assay kit (Sigma). All samples were performed in triplicate.

[2] = test system: Schaffer collateral-CA1 pyramidal cell synapse; experiment: LTP induced by two 100 Hz trains in hippocampal slices; type: cell-based, mouse; conditions: for LTP induced by two 100 Hz trains in mutant mice after pretreatment: Tet-CN279 mutant slices, 750 nM calyculin A for 30 minutes
Excerpt: In an attempt to isolate, in still another way, the novel intermediate phase in which PKA acts to suppress a phosphatase cascade we varied the number of tetanic trains of stimulation. One of the characteristics that distinguishes E-LTP from L-LTP is that weak stimuli such as a single 100 Hz train elicit E-LTP but not L-LTP. In contrast, to reliably induce L-LTP, 3-4 repeated 100 Hz trains are required. We therefore sought to determine if an intermediate phase of LTP could also be distinguished from these phases based on the strength of stimulus required. We elicited LTP with two 100 Hz trains spaced by 20 seconds. This protocol elicited LTP that was more robust than that elicited by one 100 Hz train, but less maintained than that elicited by four trains (FIG. 14C). In contrast to LTP elicited by a single 100 Hz train which is not affected by inhibitors of PKA (Huang et al., 1996), LTP elicited by two trains was partially sensitive to the PKA inhibitor KT5720 (no drug: […]; 1 μM KT5720: 153±5% of baseline at 1 hr, 5 slices, 4 mice; […]; FIG. 14D). […] These two types of experiments reveal a novel intermediate phase of LTP (I-LTP) exists that requires 1) a stronger stimulus than E-LTP, and 2) the activation of PKA.
Transverse hippocampal slices were prepared as previously described (Huang and Kandel, 1994). Mice of either sex, aged 7-18 weeks were used. In all appropriate cases, the experimenter was blinded to animal genotype. Hippocampi was rapidly unilaterally dissected out on ice, and […] slices were cut on a McIlwain tissue chopper and placed in oxygenated ACSF (NaCl, 124 mM, KCl, 4.4 mM; CaCl2, 2.5 mM; MgSO4, 1.3 mM; NaH2PO4, 1 mM; glucose, 10 mM; and NaHCO3 26 mM). The slices were then transferred to an interface chamber where they were subfused with oxygenated ACSF (1-2 ml/min) and allowed to equilibrate for 60-90 min at 28° C.
For extracellular recordings, ACSF-filled glass electrodes (1-3 MΩ) were positioned in the stratum radiatum of area CA1. A bipolar nichrome stimulating electrode was also placed in stratum radiatum for stimulation of Schaffer collateral afferents (0.05 ms duration). Unless otherwise mentioned, test stimuli were applied at a frequency of 1 per minute (0.017 Hz), and at a stimulus intensity that elicits a fEPSP slope that was 35% of the maximum. Experiments in which a significant change in the fiber volley amplitude occurred, were discarded. Drugs were applied through the perfusion medium. DL-AP5, calyculin A, KT5720 and R(+)-6-Bromo-[…]-3-allyl-1-phenyl-2,3,4-tetrahydro-1H-3-benzazepine (6-Br-APB) were purchased from Research Biochemicals International, Natick, Mass. DL-AP5 was dissolved directly into ACSF prior to use. Calyculin A, KT5720 and 6-Br-APB were dissolved as 100× stocks in DMSO and diluted into ACSF just before use. Sp-cAMPS (Biolog, La Jolla, Calif.) was dissolved directly in ACSF.

[3] = test system: Schaffer collateral-CA1 pyramidal cell synapse; type: cell-based, mouse; conditions: wild-type slices
wild-type mice = experiment: Effect of doxycycline itself on memory of wild-type mice; type: in vivo, mouse
CaMKII = CaMKII enzyme activity in striatum of B21 double transgenic mice on doxycycline; type: in vivo, mouse
Procedure: In double transgenic mice, a high level of expression of the CaMKII-Asp mRNA was obtained (FIGS. 5B and 7A-D). To determine the effect of this expression on enzyme activity. CaMKII activity was measured in the striatum of the B21 line of mice (Table 1).
Brains were removed and the striatum was dissected and immediately homogenized in 20 mM tris-HCl (pH 7.5), 0.5 mM EGTA, 0.5 mM EDTA, 2 mM leupeptin, 0.4 mM dithiothreitol, 0.1 mM phenylmethysulfonyl flouride, 0.4 mM molybdate, and 10 mM sodium pyrophosphate. CaMKII enzyme activity was determined as described (Mayford et al., 1995). B21+Dox animals received doxycycline (1 mg/ml) plus 5% sucrose in the drinking water for 3 to 5 weeks. B21+Dox withdrawal animals received doxycycline (1 mg/ml) for 3 to 5 weeks and were then switched to normal water for 6 weeks. The number of mice is given in parentheses.

[4] = test system: Schaffer collateral LTP in CA1 of hippocampal slices; experiment: 10-Hz LTP in CA1 of hippocampal slices (field EPSP slope); type: cell-based, mouse; conditions: doxycycline 1 mg/ml drinking water 2 to 3 weeks, 1 ng/ml in perfusate
[5] = Dox withdrawal: doxycycline 1 mg/ml 3 to 5 weeks, then normal water 6 weeks
[6] = doxycycline 1 mg/ml plus 5% sucrose in drinking water 3 to 5 weeks

SMILES: NC(CCCP(=O)(O)O)C(=O)O (racemic) [DL-A95, DL-AP5]
NMDA-mediated field potentials in 10 μM DNQX and reduced Mg2+ (50 μM) (NMDA receptors): completely antagonized

SMILES: C=CCN1CCc2c(cc(O)c(O)c2Br)[C@@H](c2ccccc2)C1 [6-Br-APB, R(+)-6-Bromo-7,0-dihydroxy-3-allyl-1-phenyl-2,3,4-tetrahydro-1H-3-benzazepine]
fEPSP slope, % of baseline at 3 hr after drug application ([1]; CN98 mutant, 6-Br-APB 100 μM): 181±41%

phosphatase enzyme activity in hippocampal extracts (calcineurin; CN98 mutant + EGTA): 0.32±0.14 nmol Pi/min/mg | phosphatase activity (calcineurin; CN98 mutant and wild-type hippocampal extracts in the presence of EGTA): virtually abolished | phosphatase enzyme activity in hippocampal extracts (calcineurin; CN98 wild-type + EGTA): 0.427±0.16 nmol Pi/min/mg | phosphatase enzyme activity in hippocampal extracts (calcineurin; mutant (Tet-CN279+Tet-CN273) + EGTA): 0.287±0.17 nmol Pi/min/mg | phosphatase enzyme activity in hippocampal extracts (calcineurin; wild-type (Tet-CN279+Tet-CN273) + EGTA): 0.432 ± 0.11 nmol Pi/min/mg
SMILES: O=C(O)CN(CCOCCOCCN(CC(=O)O)CC(=O)O)CC(=O)O [EGTA]

SMILES: CCCCCCOC(=O)[C@]1(O)C[C@@H]2O[C@@]1(C)n1c3ccccc3c3c4c(c5c6ccccc6n2c5c31)C(=O)NC4 [KT5720]
fEPSP slope, % of baseline at 1 hr after two 100 Hz trains ([2]; wild-type slices, 1 μM KT5720): 153±5% | decay of LTP induced by four 100 Hz trains, compared with anisomycin ([3]; KT5720 1 μM, 20 minute pretreatment, anisomycin 30 μM one hour prior to tetanus): much more rapid decay

SMILES: Nc1ncnc2c1ncn2[C@@H]1O[C@@H]2COP(O)(=S)O[C@H]2[C@H]1O (stereo partly drawn) [Sp-cAMPS]
fEPSP slope, % of baseline at 3 hr after drug application ([1]; CN98 wild-type, printed as Sp-cAMPS application, 100 μM): 204±40% | fEPSP slope, % of baseline at 3 hr after drug application ([1]; wild-type, Sp-cAMPS 100 μM): 124±13%

SMILES: COc1ccc(C[C@H]2NC[C@H](O)[C@H]2OC(C)=O)cc1 [anisomycin]
sensitivity of LTP elicited by two trains to preincubation with the drug ([2]; wild-type slices, anisomycin 30 μM): completely insensitive | LTP induced by four trains ([3]; anisomycin 30 μM): reduced

SMILES: COC[C@@H]([C@H](O)[C@H](O)C(=O)NCC[C@H](C)c1nc(/C=C/C[C@@H]2O[C@]3(C[C@@H](O)[C@@H]2C)O[C@H]([C@H](C[C@H](O)[C@H](C)[C@H](O)[C@H](C)/C=C(C)/C(C)=C/C=C/C(C)=C\C#N)OC)[C@H](OP(=O)(O)O)C3(C)C)co1)N(C)C [calyculin A]
LTP induced by two 100 Hz trains in mutant mice after pretreatment [2]: indistinguishable from that seen in wild-type | LTP induced by two 100 Hz trains in mutant mice after pretreatment ([2]; listed as Calyculin A): rescues the deficit

memory (wild-type mice; doxycycline treatment in the adult animal): did not affect memory | adult spatial memory and memory for fear conditioning (wild-type mice; wild-type mice, doxycycline 1 mg/ml during development): impaired
SMILES: C[C@H]1c2cccc(O)c2C(=O)C2=C(O)[C@]3(O)C(=O)C(C(N)=O)=C(O)[C@@H](N(C)C)[C@@H]3[C@@H](O)[C@@H]21 [doxycycline]
CaMKII Activity Ca^2+-independent (%) (CaMKII; [5]): 5.70 ± 0.43% | CaMKII Activity With Ca^2+ (CaMKII; [5]): 14.2 ± 0.7 pmol/min/µg | CaMKII Activity Without Ca^2+ (CaMKII; [5]): 0.80 ± 0.03(3) pmol min^−1 μg^−1 | CaMKII Activity Ca^2+-independent (%) (CaMKII; [6]): 1.22 ± 0.03% | CaMKII Activity With Ca^2+ (CaMKII; [6]): 12.9 ± 1.5 pmol/min/µg | CaMKII Activity Without Ca^2+ (CaMKII; [6]): 0.16 ± 0.04(5) pmol min^−1 μg^−1 | fEPSP slope, % of baseline at 1 hr after two trains ([2]; Tet-CN279 on doxycycline (mutant sentence), 1 mg/ml in water supply, 1 ng/ml in ACSF): 184±18% | fEPSP slope, % of baseline at 1 hr after two trains ([2]; printed 'Tet-CN279 mutant mice on doxycycline' in the sentence on wild-type mice on or off doxycycline): 191±18% | field EPSP slope as percentage of pre-tetanus baseline after 10-Hz tetanus ([4]; B13 double transgenic mice): 132±10% | field EPSP slope as percentage of pre-tetanus baseline after 10-Hz tetanus ([4]; wild-type mice): 122±6%
